Results: patent US7169770B2, “Method of enhancing reproductive performance in sows” (priority 2001, dated 2007)
Where two headings read alike, the source gives them in different places.

Tests used:
[1] = tested on: sows (PIC Line C22); experiment: Sow feeding trial: L-carnitine and/or chromium tris-picolinate top dress over two parities, reproductive performance; type: in vivo; settings: for First service FR %: first service farrowing rate; for No. of sows Weaned parity 1: Second parity section; for first service farrowing rate: parity 2; for No. of sows Farrowed in parity 1 / No. of sows Farrowed in parity 2 / Number of sows removed from experiment: sow longevity table
Procedure: This experiment was conducted on a commercial 1,500 sow farrow-to-wean operation in central Kansas and used 599 sows (PIC Line C22). Experimental treatments were arranged in a 2×2 factorial with main effects of added L-carnitine (0 or 50 ppm) and chromium tris-picolinate (0 or 200 ppb). Sows were started on test on the first day of breeding. Each sow remained on the same treatment through gestation, lactation, and through a second gestation period (2 parities). During gestation, all sows were fed a grain sorghum-soybean meal-based diet formulated to contain 0.65% lysine, 0.83% Ca, and 0.76% P. In lactation, all sows were fed a grain sorghum-soybean meal based diet formulated to contain 1.10% lysine, 0.90% Ca, and 0.80% P (Table 3). Dietary treatments were provided via a corn-based top dress fed at 30 g/d. The top dress was formulated to provide 90 mg/d and 250 mg/d carnitine in gestation and lactation, respectively. Chromium tris-picolinate was provided at 360 mcg/d and 1,000 mcg/d during gestation and lactation, respectively. These inclusions were calculated to provide 50 mg/kg carnitine (CarniFeed, Lonza Inc., NJ) and 200 mcg/kg chromium (Chromapure, Lonza Inc., NJ) when sows were fed 4 lb/d of the gestation diet and 11 lb/d of the lactation diet. The top dress was added to the top of the feed box between meals in order to be consumed with the rest of the diet. The top dress was color-coded (1% dyed corncobs) by treatment to assure proper distribution of experimental treatments.
At farrowing, the number of pigs born alive, as stillborn, as mummies, and total born were recorded. Total born was the sum of the number of pigs born alive, stillborn, and mummies. Sows were rebred after weaning (15 d lactation) and remained on the same treatment until farrowing a second litter. […] Sows that were bred at the start of the study, but were later found open, were removed from the trial. Procedures and data collection were identical for the second gestation and lactation period. However, dietary treatments were not administered during the second lactation period.
Calculations were made to determine the total number of pigs born, born alive, as stillborns, or as mummies per sow for the two parities. Total number of pigs were calculated using only sows that initially farrowed, then completed the second parity, as well as calculated from all the sows that were actually started on test.
Data were analyzed using the MIXED procedure of SAS. Sow was the experimental unit for the analysis with parity, previous lactation length, and/or week of farrowing as a covariate (Table IV) for total born, number of pigs born alive, mummies, and stillborn. A chi-square statistic was calculated to determine differences among treatments when analyzing percent in estrus and farrowing rate.

[2] = tested on: sows; settings: cited from earlier work
[3] = tested on: sows; settings: 200 μg/kg of chromium fed to sows; Lindemann et al. (1995b); cited from earlier work
[4] = all sows started on test for two parities
[5] = sows that completed parity one, two parities
[6] = L-carnitine added to gestating sow diets, Musser et al. (1999b)
[7] = 200 μg/kg of chromium, Lindemann et al. (1995b), Hagen et al. (2000)

C[N+](C)(C)C[C@H](O)CC(=O)[O-] [Carnitine, L-carnitine]
% estrus by d 7 ([1]; First parity): 88.6% | % estrus by d 18 ([1]; First parity): 91.5% | No. of pigs Born alive ([1]; First parity): 9.8 | No. of pigs Mummies ([1]; First parity): 0.26 | No. of pigs Stiliborn ([1]; First parity): 0.98 | No. of pigs Total born ([1]; First parity): 11.4 | No. of sows Farrowed ([1]; First parity): 140 | WEI d (wean to estrus interval) ([1]; First parity): 4.6 days | First service FR % ([1]; First parity): 91.9% | % estrus by d 7 ([1]; Second parity): 76.9% | % estrus by d 18 ([1]; Second parity): 80.8% | No. of pigs Born alive ([1]; Second parity): 9.9 | No. of pigs Mummies ([1]; Second parity): 0.33 | No. of pigs Stiliborn ([1]; Second parity): 1.02 | No. of pigs Total born ([1]; Second parity): 11.2 | No. of sows Bred by d 18 ([1]; Second parity): 128 | No. of sows Farrowed ([1]; Second parity): 104 | Percentage of weaned parity 1 sows that farrowed parity 2 ([1]; Second parity): 73.9% | WEI (wean to estrus interval) ([1]; Second parity): 4.7 | No. of sows Weaned parity 1 [1]: 140 | First service FR % ([1]; Second parity): 81.3% | Total pigs per sow, Born alive [1, 4]: 16.3 | Total pigs per sow, Mummies [1, 4]: 0.5 | Total pigs per sow, Stillborn [1, 4]: 1.6 | Total pigs per sow, Total born [1, 4]: 18.4 | first service farrowing rate ([1]; result in words): did not influence | No. of sows Farrowed in parity 1 [1]: 140 | No. of sows Farrowed in parity 2 [1]: 104 | Number of sows removed from experiment [1]: 46 | Total pigs per sow, Born alive [1, 5]: 17.6 | Total pigs per sow, Mummies [1, 5]: 0.5 | Total pigs per sow, Stillborn [1, 5]: 1.7 | Total pigs per sow, Total born [1, 5]: 19.8 | farrowing rate, total number of pigs born or born alive ([2]; 50 mg/kg of carnitine during lactation, three experiments, Musser et al. (1999a)): minimal differences | farrowing rate [2, 6]: no effect | number of pigs born alive in the subsequent parity [2, 6]: increase | total number of pigs born and born alive ([2]; L-carnitine fed during gestation, Musser et al. (1999a)): increases

chromium tris-picolinate
% estrus by d 7 ([1]; First parity): 86.7% | % estrus by d 18 ([1]; First parity): 91.7% | No. of pigs Born alive ([1]; First parity): 10.2 | No. of pigs Mummies ([1]; First parity): 0.39 | No. of pigs Stiliborn ([1]; First parity): 1.26 | No. of pigs Total born ([1]; First parity): 11.5 | No. of sows Farrowed ([1]; First parity): 138 | WEI d (wean to estrus interval) ([1]; First parity): 4.7 days | First service FR % ([1]; First parity): 95.5% | % estrus by d 7 ([1]; Second parity): 81.0% | % estrus by d 18 ([1]; Second parity): 82.9% | No. of pigs Born alive ([1]; Second parity): 9.5 | No. of pigs Mummies ([1]; Second parity): 0.40 | No. of pigs Stiliborn ([1]; Second parity): 1.09 | No. of pigs Total born ([1]; Second parity): 11.0 | No. of sows Bred by d 18 ([1]; Second parity): 127 | No. of sows Farrowed ([1]; Second parity): 102 | Percentage of weaned parity 1 sows that farrowed parity 2 ([1]; Second parity): 74.3% | WEI (wean to estrus interval) ([1]; Second parity): 4.6 | No. of sows Weaned parity 1 [1]: 138 | First service FR % ([1]; Second parity): 79.7% | Total pigs per sow, Born alive [1, 4]: 16.2 | Total pigs per sow, Mummies [1, 4]: 0.7 | Total pigs per sow, Stillborn [1, 4]: 2.0 | Total pigs per sow, Total born [1, 4]: 18.8 | farrowing rate ([1]; our study, result in words): increases | number born alive ([1]; our study, result in words): no improvements | number of stillborn pigs per litter ([1]; our study, result in words): tendencies to increase | first service farrowing rate ([1]; result in words): did not influence | No. of sows Farrowed in parity 1 [1]: 138 | No. of sows Farrowed in parity 2 [1]: 102 | Number of sows removed from experiment [1]: 45 | Total pigs per sow, Born alive [1, 5]: 16.8 | Total pigs per sow, Mummies [1, 5]: 0.6 | Total pigs per sow, Stillborn [1, 5]: 2.1 | Total pigs per sow, Total born [1, 5]: 19.5 | farrowing rate [2, 7]: no effects | number of pigs born alive [2, 7]: increases | plasma insulin and insulin to glucose ratio [3]: decreased
